Test results published in patent US8476036B2, “Nonluminogenic assay for living cells” (Promega Corporation, priority 2004, dated 2013).
Counter-ions that a name gives are not always drawn. Like-named read-outs stand apart in the source and are kept apart here. Square brackets hold non-standard residues; d marks the D form. Peptide text beside a SMILES is read from it. * marks the point of attachment. Sta = CC(C)C[C@H](N)[C@@H](O)CC(=O)O; Isovaleryl = CC(C)CC(=O)*

What was measured:
HL-60 and/or U937 = assay: Protease retention assay inhibitor/adjuncts survey with Gly-Phe-AFC; format: cell-based; details: for Comments: no inhibition/no effect to (concentration): highest concentration without effect on retention activity
Source text: (§1) Puromycin, E-64, Phenylmethanesulfonyl fluoride (PMSF), Adenosine 5′-triphosphate (ATP), N-(α-Rhamnopyranosyloxyhyrdoxyphosphinyl)-Leu-Trp disodium salt (Phosphoramidon), N-[(2S,3R)-3-Amino-2-hydroxy-4-phenylbutyryl-L-leucine hydrochloride (Bestatin), 1,10-Phenathroline, […], 4-(2-Aminoethyl)benzenesulfonyl fluoride (AEBSF), 1,4-Dithio-DL-threitol (DTT), Edetate disodium dihyrdrate (EDTA), Isovaleryl-L-valyl-L-valyl-[(3S,4S)-4-amino-3-hydroxy-6-methylheptanoyl]-L-alanyl[93S,4S]-4-amino-3-hydroxy-6-methylheptanoicacid (Pepstatin A), sodium chloride, Aprotinin, N-Acetyl-L-leucyl-L-leucyl-L-argininal hemisulfate salt (leupeptin) were all purchased from Sigma. Inhibitors were resuspended in DMSO to varying stock concentrations with a high target concentration of 200 μM or 200 μg/ml in Dulbecco's Phosphate Buffer Saline w/o Mg^++ or Ca^++ (DPBS) for addition to either lysates or viable cell populations. DTT, NaCl, EDTA, and ATP were also diluted in DPBS. All compounds were incubated with compromised or viable cells for a period of at least 30 minutes (most 60 minutes) at 37° C. prior to assessment of activity.
(§2) The protease retention assay inhibitor/adjuncts survey was conducted on sonicated, saponin-lysed, or viable HL-60 and/or U937 using Gly-Phe-AFC at 100 μM final concentration as described previously. The protease release assay inhibitor/adjuncts survey was conducted on sonicated, saponin-lysed, or viable HL-60, SK-MEL-28, and/or U937 using Ala-Ala-Phe-AMC or (Ala-Ala-Phe)2-Rhodamine 110.

HL-60, SK-MEL-28, U937 = assay: Protease release assay inhibitor/adjuncts survey with Ala-Ala-Phe-AMC; format: cell-based; details: for Comments: extent of the effect on release activity, in words
Source text: as §1, §2

[1] = on protease release activity, Ala-Ala-Phe-AMC, sonicated, saponin-lysed, or viable cells
[2] = highest concentration without inhibition of release activity
[3] = extent or nature of the effect on retention activity, in words
[4] = on protease retention activity, Gly-Phe-AFC at 100 μM final, sonicated, saponin-lysed, or viable cells

Compound | Effect (HL-60, SK-MEL-28, U937; [1]) | Comments: no inhibition to (concentration) (HL-60, SK-MEL-28, U937; [2]) | Effect (HL-60 and/or U937; [4]) | other results
O.O.O=C([O-])CN(CCN(CC(=O)[O-])CC(=O)O)CC(=O)O.[Na+].[Na+] [EDTA, Edetate disodium dihyrdrate] |  |  |  | Comments (HL-60 and/or U937): Also reduces; Effect (HL-60 and/or U937): Inhibition; Protease retention activity profile in the presence of inhibitors or adjuncts (HL-60 and/or U937): sensitivities; Comments: no inhibition to (concentration) (HL-60, SK-MEL-28, U937): to 50 mM; Effect (HL-60, SK-MEL-28, U937): No inhib
NC(N)=NCCC[C@H](NC(=O)[C@@H]1CCCN1C(=O)[C@H](N)Cc1ccccc1)C(=O)CCl [FPR-CMK] | Inhibition |  |  | Comments (HL-60, SK-MEL-28, U937): Moderate
CC(=O)N[C@@H](CC(C)C)C(=O)N[C@@H](CC(C)C)C(=O)N[C@H](C=O)CCCNC(=N)N [Leupeptin, N-Acetyl-L-leucyl-L-leucyl-L-argininal hemisulfate salt] | No inhib | to 100 ug/ml |  | 
[Cl-].[Na+] [NaCl, sodium chloride] |  |  | No inhib | Comments (HL-60 and/or U937; [3]): Insensitivity
O=S(=O)(F)Cc1ccccc1 [PMSF, Phenylmethanesulfonyl fluoride] | Inhibition |  | No inhib | Comments: no inhibition/no effect to (concentration) (HL-60 and/or U937): to 100 uM; Comments (HL-60, SK-MEL-28, U937): Strong
CC(C)CC(=O)N[C@H](C(=O)N[C@H](C(=O)N[C@@H](CC(C)C)[C@@H](O)CC(=O)N[C@@H](C)C(=O)N[C@@H](CC(C)C)[C@@H](O)CC(=O)O)C(C)C)C(C)C [Pepstatin, Isovaleryl-L-valyl-L-valyl-[(3S,4S)-4-amino-3-hydroxy-6-methylheptanoyl]-L-alanyl[93S,4S]-4-amino-3-hydroxy-6-methylheptanoicacid] (Isovaleryl-VV[Sta]A[Sta]-OH) | No inhib | to 100 uM |  | 
CC(C)C[C@H](NP(=O)(O)O[C@@H]1O[C@@H](C)[C@H](O)[C@@H](O)[C@H]1O)C(=O)N[C@@H](Cc1c[nH]c2ccccc12)C(=O)O [Phosphoramidon, N-(α-Rhamnopyranosyloxyhyrdoxyphosphinyl)-Leu-Trp disodium salt] | No inhib | to 100 uM | No inhib | Comments: no inhibition/no effect to (concentration) (HL-60 and/or U937): to 100 uM
COc1ccc(C[C@H](N)C(=O)N[C@H]2[C@@H](O)[C@H](n3cnc4c(N(C)C)ncnc43)O[C@@H]2CO)cc1 [Puromycin] |  |  | Inhibition | Protease retention activity profile in the presence of inhibitors or adjuncts (HL-60 and/or U937): sensitivities; Comments (HL-60 and/or U937; [3]): Very modest
Antitrypsin: Serine (trypsin-like) protease inhibitor in Table 6 | No inhib | to 100 ug/ml |  | 
Aprotinin | No inhib | to 100 uM |  | 
